The text below walks through data of patent publication US12111318B2, “Method for treating cancer based on expression levels of translationally controlled tumor protein (TCTP)” (KOREA UNIVERSITY RESEARCH AND BUSINESS FOUNDATION, priority 2020, dated 2024).

SMILES strings stand for the structures. Where two headings read alike, the source gives them in different places.

One series concerns CT26 TCTP tumor cells. The protocol:
The tumor cells were harvested by trypsinization and washed once with DMEN (Thermo Fisher, USA) containing 0.1% fetal bovine (FBS), resuspended, and labeled in 0.1% DMEN with 10 μM CFSE for 10 minutes in a 37° C. incubator with 5% CO2. Then, the CFSE-labeled (MCF-7, HCT116, CaSki, MDA-MB-231) tumor cells were resuspended in 10 μM MART-1 peptide containing 1 ml of DMEM. In the case of A375 and 526Mel, the peptide-pulsing process was not needed. After peptide-pulsing for 1 hour, the cells were incubated for 4 hours with MART-1- or the NY-ESO1-specific CD8+ T cell lines at an E/T ratio of 1:1. […] All analysis was performed using a Becton Dickinson FACSverse (BD Bioscience, USA).
To further investigate the effect of each drug on sensitizing TCTP^high tumor cells to CTL-mediated killing, CT26 TCTP tumor cells were incubated with CTLs at various tumor cell-T cell ratios after treatment with a sublethal dose of each drug.
To quantify the synergistic effects of treatment of each drug with CTLs, a combination score was calculated based on changes in the percentage of apoptosis in drug-treated tumor cells with or without CTLs (see the following formula 1). […] Formula 1

The next series deals with CT26 No cells. The series can be described thus: Cell viability assay (trypan blue exclusion), CT26 No cells. It is filed as cell-based. The note with it: Mus musculus, 24 hours, read-out: IC50 (concentration causing a 50% decrease in cell viability). The method, then: (§1) CT26 tumor cells were treated with indicated concentrations of cisplatin, dihydroartemisinin, rapamycin, sertraline, and thioridazine for 24 hours. Cell viability was measured by the trypan blue exclusion assay, and the concentrations causing a 50% decrease in cell viability (IC50 values) were determined.

The subject of the next series is CT26 P3 tumor. The series can be described thus: ICB-refractory CT26 P3 tumor-bearing mice, anti-PD-L1 antibody alone or combined with DHA. It is filed as in vivo, mouse. The settings on record: both the anti-PD-L1 blockade agent and DHA; all mice in the other groups died. The protocol: Next, the present inventors expanded the preclinical therapeutic value of DHA in ICB therapy. To do this, ICB-refractory CT26 P3 tumor-bearing mice were administered anti-PD-L1 antibody alone or combined with DHA (FIG. 7G).

Another series deals with CT26 TCTP cells. The series can be described thus: Cell viability assay (trypan blue exclusion), CT26 TCTP cells. Type of series: cell-based. The method, then:
as §1

Turning to `C[C@H]1[C@@H](O)O[C@@H]2O[C@@]3(C)CC[C@H]4[C@H](C)CC[C@@H]1[C@@]24OO3` [DHA, dihydroartemisinin], in the series with CT26 TCTP tumor cells (sublethal dose of each drug, then CTLs at various tumor cell-T cell ratios, compared to PBS or cisplatin), the CTL-mediated cytotoxicity result was “augmented CTL-mediated cytotoxicity in a synergistic fashion”. The IC50 with CT26 No cells was 408 µM; with CT26 TCTP cells (Mus musculus, CT26 TCTP cells, 24 hours, read-out: IC50 (concentration causing a 50% decrease in cell viability)), 22.7 µM. Besides, in the series with CT26 P3 tumor, the Mice that survived was determined as 90%. Also, the “Difference of IC50 between CT26 No and CT26 TCTP cells” value in the series with CT26 TCTP cells (CT26 No vs CT26 TCTP) is reported as “about 20 fold”.

For `N.N.[Cl][Pt][Cl]` [cisplatin], in the series with CT26 TCTP cells (CT26 TCTP vs CT26 No cells, 24 hours), the “Susceptibility of CT26 TCTP cells to the drug” value was “refractory”.

Turning to `CO[C@H]1C[C@@H]2CC[C@@H](C)[C@@](O)(O2)C(=O)C(=O)N2CCCC[C@H]2C(=O)O[C@H]([C@H](C)C[C@@H]2CC[C@@H](O)[C@H](OC)C2)CC(=O)[C@H](C)/C=C(\C)[C@@H](O)[C@@H](OC)C(=O)[C@H](C)C[C@H](C)/C=C/C=C/C=C/1C` [rapamycin], the CTL-mediated cytotoxicity result in the series on CT26 TCTP tumor cells is “augmented CTL-mediated cytotoxicity in a synergistic fashion”.

With `CN[C@H]1CC[C@@H](c2ccc(Cl)c(Cl)c2)c2ccccc21` [sertraline], in the series on CT26 TCTP tumor cells, the CTL-mediated cytotoxicity entry is “augmented CTL-mediated cytotoxicity in a synergistic fashion”.

Take `CSc1ccc2c(c1)N(CCC1CCCCN1C)c1ccccc1S2` (stereo not drawn) [thioridazine]: in the series on CT26 TCTP tumor cells, the CTL-mediated cytotoxicity entry is reported as “augmented CTL-mediated cytotoxicity in a synergistic fashion”.
